Where two headings read alike, the source gives them in different places. Numbered stars: 1 amine (or outer) side, 2 acyl side, 3 side chain; on linkers, the order of the positions; unused ones are H or OH. Bridge positions count the residues as written; N and C are the ends. Square brackets hold non-standard residues; d marks the D form. Peptide text beside a SMILES is read from it. Phe(4-(4-pyridyl)) = N[C@@H](Cc1ccc(-c2ccncc2)cc1)C(=O)O; Bip = N[C@@H](Cc1ccc(-c2ccccc2)cc1)C(=O)O; Phe(4-NH2) = Nc1ccc(C[C@H](N)C(=O)O)cc1; d(hPhe) = N[C@H](CCc1ccccc1)C(=O)O; d2Thi = N[C@H](Cc1cccs1)C(=O)O; Suc = O=C(CCC(=O)[*:2])[*:1]
Assays:
[1] = system: TNF-α (degradation of IkB in HeLa cells or A431 cells); test: Human cell-based assay: inhibition of TNF-α induced degradation of IkB; details: for inhibition at 5 µM: read-out: Inhibition at Various Compound Concentrations, 5 μM; for inhibition at 10 µM: read-out: Inhibition at Various Compound Concentrations, 10 μM
[2] = system: rat paw edema model; test: Rat paw edema model (carrageenan), anti-inflammatory activity; assay type: in vivo, Sprague-Dawley (SD) rats; details: 1 mg/kg IV
Protocol: Compounds 3, 4, 10 and 202 were tested in a rat paw edema model to determine anti-inflammatory activity. Seven groups (one for Vehicle A [15 mL PEG400, 3 mL Graves Grain alcohol (190 proof), 1.8 mL dimethylacetamide and 10.2 mL deionized water] alone as a negative control, one for Vehicle B [0.1M NaHCO3] alone as a negative control, one for each of the four test compounds dissolved in Vehicle A, and one for indomethacin dissolved in Vehicle B as a positive control), each group containing six Sprague-Dawley (SD) rats (180-200 g) randomized by weight. Initial paw volumes were measured by placing the right hind limb of the rat up to the top of the hock in a beaker of water sitting on a scale that had been tared to zero and recording the readout.
Rats were pre-treated with either i) one of the test compounds, or ii) a positive or negative control. Vehicle A alone and test compound dissolved in Vehicle A (Compound 3-1.0 mg/kg; Compound 4-0.4 mg/kg; Compound 10-0.5 mg/kg; Compound 202-0.3 mg/kg) were administered by intravenous injection. Vehicle B alone and indomethacin (5 mg/kg in 0.1M NaHCO3) was administered by intraperitoneal injection. Thirty minutes after this pretreatment, rats were anesthetized and injected with 0.1 mL of carrageenan (10 mg/mL in water) in the subplantar region of the right hind foot using a ½ inch 26 gauge needle attached to a 1 cc syringe.
At 2, 4 and 6 hours post-carrageenan injection, the right hind foot of each rat was measured for paw volume as described above.
We next investigated the effect of varying intravenous doses of Compound 202 (0.05, 0.10, 0.30, and 1.00 mg/kg) in the same model using the same protocol (6 rats per group). […] We also investigated the affect of oral dosing (10 mg/kg) of Compound 202 in the same model. For oral dosing, a 2.5 mg/mL suspension of Compound 202 was prepared in Vehicle A. Rats were orally administered 4 mL/kg of that suspension.

[3] = target: T1, TNFα / TNFα receptor (TNFα R1/Fc) (Homo sapiens, UniProt P01375); test: Inhibition of binding of TNFα to the TNFα receptor (plate ELISA competition); details: Table 2
T1 construct: purchased R&D Systems
T1 sequence (P01375 77-233 limits assumed, species assumed): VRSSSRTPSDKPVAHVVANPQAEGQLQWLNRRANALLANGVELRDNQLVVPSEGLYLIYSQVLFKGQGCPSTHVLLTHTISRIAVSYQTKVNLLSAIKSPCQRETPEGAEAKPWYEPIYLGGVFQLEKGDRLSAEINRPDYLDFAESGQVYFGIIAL
In short: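 Plates were coated with TNFα at 15 nM. Test compound and 8.33 nM receptor-Fc (PBST, 2% DMSO) were first mixed in solution for 30 min at room temperature, then transferred to the plates for another 30 min. Competition was read by absorbance at 450 nm after HRP anti-human IgG Fc detection with TMB.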

[4] = 5 μM compound, HeLa or A431 cells
[5] = 10 μM compound, HeLa or A431 cells
[6] = read-out: Activity (IC50, inhibition of TNFα binding to TNFα R1/Fc)

With `O=C(O)[C@H](Cc1ccccc1)NC(=O)[C@@H]1Cc2ccc(cc2)NC(=O)[C@H](O)[C@@H](O)C(=O)N[C@H](Cc2cccs2)C(=O)N[C@@H](Cc2ccc(-c3ccncc3)cc2)C(=O)N[C@H](Cc2ccccc2)C(=O)N1` [Compound 442] the inhibition at 5 µM [1, 4] was 10 to 50%, the inhibition at 10 µM [1, 5] was 10 to 50% and the “Change in Paw Volume” value ([2]; Table 5, 2 h post-carrageenan) was 0.86 ± 0.15 mL. For the same compound, the “Change in Paw Volume” value ([2]; Table 5, 4 h post-carrageenan) was 1.08 ± 0.16 mL, the “Change in Paw Volume” value ([2]; Table 5, 6 h post-carrageenan) was 1.01 ± 0.14 mL and the IC50 [3, 6] was < 10 µM.

`O=C1CCC(=O)N[C@H](Cc2cccs2)C(=O)N[C@@H](Cc2ccc(-c3ccccc3)cc2)C(=O)N[C@H](Cc2ccccc2)C(=O)N[C@H](C(=O)N[C@H](Cc2ccccc2)C(=O)O)Cc2ccc(cc2)N1` [Compound 33] ([d2Thi][Bip][dF][Phe(4-NH2)][dF]-OH; linker N-4 via Suc) was tested, and the inhibition at 5 µM [1, 4] was 10 to 50%, the inhibition at 10 µM [1, 5] was 50 to 80% and the “Change in Paw Volume” value ([2]; Table 4, 2 h post-carrageenan) was 1.10 ± 0.22 mL. For the same compound, the “Change in Paw Volume” value ([2]; Table 4, 4 h post-carrageenan) was 1.49 ± 0.11 mL, the “Change in Paw Volume” value ([2]; Table 4, 6 h post-carrageenan) was 1.46 ± 0.07 mL and the IC50 [3, 6] was < 10 µM.

In the case of `O=C(O)[C@H](Cc1ccccc1)NC(=O)[C@@H]1Cc2ccc(cc2)NC(=O)[C@H](O)[C@@H](O)C(=O)N[C@H](Cc2cccs2)C(=O)N[C@@H](Cc2ccc(-c3ccccc3)cc2)C(=O)N[C@H](Cc2ccccc2)C(=O)N1` [Compound 174], the inhibition at 5 µM [1, 4] is reported as < 10%, the inhibition at 10 µM [1, 5] is reported as 10 to 50% and the “Change in Paw Volume” value ([2]; Table 7, 2 h post-carrageenan) is reported as 1.22 ± 0.08 mL. For the same compound, the “Change in Paw Volume” value ([2]; Table 7, 4 h post-carrageenan) was 1.53 ± 0.13 mL, the “Change in Paw Volume” value ([2]; Table 7, 6 h post-carrageenan) was 1.70 ± 0.22 mL and the IC50 [3, 6] was < 10 µM.

In the case of `O=C(O)[C@@H]1Cc2ccc(cc2)NC(=O)[C@H](O)[C@@H](O)C(=O)N[C@H](Cc2cccs2)C(=O)N[C@@H](Cc2ccc(-c3ccncc3)cc2)C(=O)N[C@H](Cc2ccccc2)C(=O)N1` [Compound 330], the inhibition at 5 µM [1, 4] is reported as > 80%, the inhibition at 10 µM [1, 5] is reported as 10 to 50% and the “Change in Paw Volume” value ([2]; Table 6, 2 h post-carrageenan) is reported as 1.20 ± 0.20 mL. For the same compound, the “Change in Paw Volume” value ([2]; Table 6, 4 h post-carrageenan) was 1.32 ± 0.17 mL, the “Change in Paw Volume” value ([2]; Table 6, 6 h post-carrageenan) was 1.33 ± 0.22 mL and the IC50 [3, 6] was < 10 µM.

`O=C1COc2ccc(cc2)C[C@@H](C(=O)O)NC(=O)[C@H](Cc2ccccc2)NC(=O)[C@H](Cc2ccc(-c3ccc(NC(=O)OCc4ccccc4)cc3)cc2)NC(=O)[C@H](Cc2cccs2)N1` [Compound 362] was tested, and the inhibition at 5 µM [1] was < 10%, the inhibition at 10 µM [1] was 10 to 50% and the “Change in Paw Volume” value ([2]; Table 5, 2 h post-carrageenan) was 1.17 ± 0.07 mL. For the same compound, the “Change in Paw Volume” value ([2]; Table 5, 4 h post-carrageenan) was 1.22 ± 0.21 mL, the “Change in Paw Volume” value ([2]; Table 5, 6 h post-carrageenan) was 1.15 ± 0.19 mL and the IC50 [3, 6] was < 10 µM.

`O=C1COc2ccc(cc2)C[C@@H](C(=O)N[C@@H](Cc2ccccc2)C(=O)O)NC(=O)[C@@H](CCc2ccccc2)NC(=O)[C@H](Cc2ccc(-c3ccccc3)cc2)NC(=O)[C@@H](Cc2cccs2)N1` [Compound 156] was tested, and the inhibition at 5 µM [1] was 50 to 80%, the inhibition at 10 µM [1] was > 80% and the “Change in Paw Volume” value ([2]; Table 7, 2 h post-carrageenan) was 1.49 ± 0.24 mL. The “Change in Paw Volume” value ([2]; Table 7, 4 h post-carrageenan) was 1.51 ± 0.12 mL, the “Change in Paw Volume” value ([2]; Table 7, 6 h post-carrageenan) was 1.81 ± 0.16 mL and the IC50 ([3]; Activity (IC50, inhibition of TNFα binding to TNFα R1/Fc)) was < 10 µM.

`O=C1CCC(=O)N[C@H](CCc2ccccc2)C(=O)N[C@@H](Cc2ccc(-c3ccncc3)cc2)C(=O)N[C@H](Cc2ccccc2)C(=O)N[C@H](C(=O)O)Cc2ccc(cc2)N1` [Compound 419] ([d(hPhe)][Phe(4-(4-pyridyl))][dF][Phe(4-NH2)]-OH; linker N-4 via Suc) was tested, and the inhibition at 5 µM [1, 4] was < 10%, the inhibition at 10 µM [1, 5] was < 10% and the “Change in Paw Volume” value ([2]; Table 8, 2 h post-carrageenan) was 1.22 ± 0.21 mL. The “Change in Paw Volume” value ([2]; Table 8, 4 h post-carrageenan) was 1.32 ± 0.18 mL, the “Change in Paw Volume” value ([2]; Table 8, 6 h post-carrageenan) was 1.16 ± 0.16 mL and the IC50 [3, 6] was 10 to 30 µM.

— patent US8338565B2, “Macrocyclic compounds for inhibition of tumor necrosis factor alpha” (Ensemble Therapeutics Corporation, priority 2008, dated 2012)
